Reference: US20240016773A1, “COMPOSITIONS AND METHODS FOR DIAGNOSIS AND TREATMENT OF CONDITIONS RELATED TO AGING” (EPITRACKER, INC., priority 2018, published 2024)

Key:
[1] = system: twelve different human primary cell systems mimicking various disease states; assay: BioMAP Diversity PLUS panel, twelve human primary cell systems (summary by disease); assay type: cell-based; parameters: key: x: Significantly reduced cell-based biomarkers relevant to specific diseases and conditions
Source text: As a proof of concept, 14 compounds were selected from our compound library based on predicted efficacy in lowering inflammation in dolphins. Pure synthetic forms of these compounds were screened for cell-based activities (relevant to multiple aging-associated diseases and diseases that may impact longevity) using twelve different human primary cell systems mimicking various disease states (TABLE 4—description of primary human cell systems used to screen selected compounds in library).
(§1) The Diversity PLUS panel allows test agent characterization in an unbiased way across a broad set of systems modeling various human disease states. These systems are designed to model complex human tissue and disease biology of the vasculature, skin, lung, and inflammatory tissues. Quantitative measurements of 148 biomarker activities across this broad panel, along with comparative analysis of biological activities from known bioactive agents, were used to predict and compare the efficacy and function of each selected compound at four concentrations (740 nm and 2.2, 6.7 and 20 μM).
(§2) BioMAP systems are constructed with one or more primary cell types from healthy human donors, with stimuli (such as cytokines or growth factors) added to capture relevant signaling networks that naturally occur in human tissue or pathological conditions. Vascular biology is modeled in both a Th1 (3C system) and a Th2 (4H system) inflammatory environment, as well as in a Th1 inflammatory state specific to arterial smooth muscle cells (CASM3C system). Additional systems recapitulate aspects of the systemic immune response including monocyte-driven Th1 inflammation (LPS system) or T cell stimulation (SAg system), chronic Th1 inflammation driven by macrophage activation (lMphg system) and the T cell-dependent activation of B cells that occurs in germinal centers (BT system). The BE3C system (Th1) and the BF4T system (Th2) represent airway inflammation of the lung, while the MyoF system models myofibroblast-lung tissue remodeling. Lastly, skin biology is addressed in the KF3CT system modeling Th1 cutaneous inflammation and the HDF3CGF system modeling wound healing.
(§3) Each test agent generates a signature BioMAP profile that is created from the changes in protein biomarker readouts within individual system environments. Biomarker readouts (7-17 per system) are selected for therapeutic and biological relevance, are predictive for disease outcomes or specific drug effects and are validated using agents with known mechanism of action (MoA). Each readout is measured quantitatively by immune-based methods that detect protein (e.g., ELISA) or functional assays that measure proliferation and viability. BioMAP readouts are diverse and include cell surface receptors, cytokines, chemokines, matrix molecules and enzymes. In total, the Diversity PLUS panel contains 148 biomarker readouts that capture biological changes that occur within the physiological context of the particular BioMAP system. Specific BioMAP activities have been correlated to in vivo biology, and multiparameter BioMAP profiles have been used to distinguish compounds based on MoA and target selectivity across diverse physiological systems.
(§4) Activated BioMAP systems were incubated with each compound for 24 to 72 hours. Protein-based biomarkers from activated cell systems were measured and compared with non-treated control systems.

[2] = system: BF4T system: bronchial epithelial cells, dermal fibroblasts (IL-4, TNF-α); assay: BioMAP Diversity PLUS, BF4T system; assay type: cell-based, human
Source text: as §1
(§5) BioMAP systems are constructed with one or more primary cell types from healthy human donors, with stimuli (such as cytokines or growth factors) added to capture relevant signaling networks that naturally occur in human tissue or pathological conditions. Vascular biology is modeled in both a Th1 (3C system) and a Th2 (4H system) inflammatory environment, as well as in a Th1 inflammatory state specific to arterial smooth muscle cells (CASM3C system). […]
as §3, with “Specific BioMAP activities have been correlated to in vivo biology, and multiparameter BioMAP profiles have been used to distinguish compounds based on MoA and target selectivity across diverse physiological systems.” left out
as §4

[3] = system: BT system: peripheral blood mononuclear cells, B cells (α-IgM, TCR ligands); assay: BioMAP Diversity PLUS, BT system; assay type: cell-based, human
Source text: as §1, §2, §3, §4

[4] = system: HDF3CGF system: dermal fibroblasts (IFNγ, TNFα, IL-1β, EGF, bFGF, PDGF-BB); assay: BioMAP Diversity PLUS, HDF3CGF system; assay type: cell-based, human; details: HDF3CGF
Source text: as §1, §2, §3, §4

[5] = system: CASM3C system: coronary artery smooth muscle cells (IL-1β, TNFα, IFNγ); assay: BioMAP Diversity PLUS, CASM3C system; assay type: cell-based, human; details: 2.2 μM
Source text: as §1, with “μM). […]” for “μM).”
(§6) Each test agent generates a signature BioMAP profile that is created from the changes in protein biomarker readouts within individual system environments. Biomarker readouts (7-17 per system) are selected for therapeutic and biological relevance, are predictive for disease outcomes or specific drug effects and are validated using agents with known mechanism of action (MoA). Each readout is measured quantitatively by immune-based methods that detect protein (e.g., ELISA) or functional assays that measure proliferation and viability. BioMAP readouts are diverse and include cell surface receptors, cytokines, chemokines, matrix molecules and enzymes. […]

[6] = system: SAg system: venular endothelial cells, peripheral blood mononuclear cells (TCR ligands); assay: BioMAP Diversity PLUS, SAg system; assay type: cell-based, human
Source text: as §1, §2, §3, §4

[7] = system: /Mphg system: macrophages, venular endothelial cells (TLR2 ligand); assay: BioMAP Diversity PLUS, /Mphg system; assay type: cell-based, human; details: 20.0 μM
Source text: as §1, with “μM). […]” for “μM).”
as §6

[8] = system: BE3C system: bronchial epithelial cells (IL-1β, IFNγ, TNFα); assay: BioMAP Diversity PLUS, BE3C system; assay type: cell-based, human
Source text: as §1, §5
as §6, with “enzymes. In total, the Diversity PLUS panel contains 148 biomarker readouts that capture biological changes that occur within the physiological context of the particular BioMAP system.” for “enzymes.”
as §4

[9] = system: LPS system: venular endothelial cells, peripheral blood mononuclear cells (TLR4 ligand); assay: BioMAP Diversity PLUS, LPS system; assay type: cell-based, human
Source text: as §1, §2
as §6, with “enzymes. In total, the Diversity PLUS panel contains 148 biomarker readouts that capture biological changes that occur within the physiological context of the particular BioMAP system.” for “enzymes.”
as §4

With `CCCCCCC=CCCCCCCCCC(=O)O` [10-heptadecanoate] the “Significantly reduced cell-based biomarkers relevant to: Allergy” value ([1]; Table 6) was “x”, the “Significantly reduced cell-based biomarkers relevant to: Asthma” value ([1]; Table 6) was “x” and the “Significantly reduced cell-based biomarkers relevant to: Autoimmunity” value ([1]; Table 6) was “x”. For the same compound, the “Significantly reduced cell-based biomarkers relevant to: COPD” value ([1]; Table 6) was “x”, the “Significantly reduced cell-based biomarkers relevant to: Hematological oncology” value ([1]; Table 6) was “x” and the “Significantly reduced cell-based biomarkers relevant to: Pulmonary fibrosis” value ([1]; Table 6) was “x”. The “Significantly reduced cell-based biomarkers relevant to: SLE” value ([1]; Table 6) was “x”, the “Significantly reduced cell-based biomarkers relevant to: T-cell dependent B cell proliferation” value ([1]; Table 6) was “x” and the “Significantly reduced cell-based biomarkers relevant to: Th2 type inflammation” value ([1]; Table 6) was “x”. The “Significantly reduced cell-based biomarkers relevant to: Chronic inflammation” value ([1]; Table 7) was “x”, the “Significantly reduced cell-based biomarkers relevant to: Psoriasis” value ([1]; Table 7) was “x” and the “Significantly reduced cell-based biomarkers relevant to: Restenosis” value ([1]; Table 7) was “x”. The “Significantly reduced cell-based biomarkers relevant to: Rheumatoid arthritis” value ([1]; Table 7) was “x”, the “Significantly reduced cell-based biomarkers relevant to: Thl type inflammation” value ([1]; Table 7) was “x” and the “Significantly reduced cell-based biomarkers relevant to: Fibrosis” value ([1]; Table 8) was “x”. For the same compound, the “Significantly reduced cell-based biomarkers relevant to: Stromal biology in tumors” value ([1]; Table 8) was “x”, the “Significantly reduced cell-based biomarkers relevant to: Vascular inflammation” value ([1]; Table 8) was “x” and the “Significant log10 reduction vs nontreated controls: Eotaxin 3 (CCL26)” value (“Significant log10 reduction … (CCL26)” for short) ([2]; 2.2 μM) was −0.10 log10. For the same compound, the “Significant log10 reduction … (CCL26)” value ([2]; 6.7 μM) was −0.13 log10, the “Significant log10 reduction … (CCL26)” value ([2]; 20.0 μM) was −0.31 log10 and the “Significant log10 reduction vs nontreated controls: Secreted interleukin 2 (IL-2)” value ([3]; 6.7 μM) was −0.11 log10. The “Significant log10 reduction vs nontreated controls: Macrophage colony-stimulating factor (M-CSF)” value (from here on “Significant log10 reduction … (M-CSF)”) ([4]; 6.7 μM) was −0.1 log10, the “Significant log10 reduction vs nontreated controls: Vascular cell adhesion molecule 1 (VCAM-1)” value ([4]; 6.7 μM) was −0.17 log10 and the “Significant log10 reduction vs nontreated controls: Serum amyloid A” value [5] was −0.13 log10.
With `C=CCCCCCCCCC(=O)O` [10-undecanoate] the “Significantly reduced cell-based biomarkers relevant to: Allergy” value ([1]; Table 6) was “x”, the “Significantly reduced cell-based biomarkers relevant to: Asthma” value ([1]; Table 6) was “x” and the “Significantly reduced cell-based biomarkers relevant to: Autoimmunity” value ([1]; Table 6) was “x”. The “Significantly reduced cell-based biomarkers relevant to: Hematological oncology” value ([1]; Table 6) was “x”, the “Significantly reduced cell-based biomarkers relevant to: SLE” value ([1]; Table 6) was “x” and the “Significantly reduced cell-based biomarkers relevant to: T-cell dependent B cell proliferation” value ([1]; Table 6) was “x”. For the same compound, the “Significantly reduced cell-based biomarkers relevant to: Atherosclerosis” value ([1]; Table 7) was “x”, the “Significantly reduced cell-based biomarkers relevant to: Chronic inflammation” value ([1]; Table 7) was “x” and the “Significantly reduced cell-based biomarkers relevant to: Metabolic diseases” value ([1]; Table 7) was “x”. For the same compound, the “Significantly reduced cell-based biomarkers relevant to: Organ transplantation” value ([1]; Table 7) was “x”, the “Significantly reduced cell-based biomarkers relevant to: Psoriasis” value ([1]; Table 7) was “x” and the “Significantly reduced cell-based biomarkers relevant to: Restenosis” value ([1]; Table 7) was “x”. The “Significantly reduced cell-based biomarkers relevant to: Rheumatoid arthritis” value ([1]; Table 7) was “x”, the “Significantly reduced cell-based biomarkers relevant to: Thl type inflammation” value ([1]; Table 7) was “x” and the “Significantly reduced cell-based biomarkers relevant to: Crohn's disease” value ([1]; Table 8) was “x”. For the same compound, the “Significantly reduced cell-based biomarkers relevant to: Fibrosis” value ([1]; Table 8) was “x”, the “Significantly reduced cell-based biomarkers relevant to: Hematological oncology” value ([1]; Table 8) was “x” and the “Significantly reduced cell-based biomarkers relevant to: Pulmonary responses to respiratory infections” value ([1]; Table 8) was “x”. For the same compound, the “Significantly reduced cell-based biomarkers relevant to: Sarcoidosis” value ([1]; Table 8) was “x”, the “Significantly reduced cell-based biomarkers relevant to: Stromal biology in tumors” value ([1]; Table 8) was “x” and the “Significant log10 reduction vs nontreated controls: CD40” value (“Significant log10 reduction … CD40” below) ([6]; 0.7 μM) was −0.07 log10. The “Significant log10 reduction … CD40” value ([6]; 2.2 μM) was −0.14 log10, the “Significant log10 reduction … CD40” value ([6]; 6.7 μM) was −0.09 log10 and the “Significant log10 reduction … CD40” value ([6]; 20.0 μM) was −0.11 log10. For the same compound, the “Significant log10 reduction vs nontreated controls: Secreted interleukin 17A (IL-17A)” value ([3]; 2.2 μM) was −0.25 log10, the “Significant log10 reduction vs nontreated controls: Secreted interleukin 17A (IL-17A)” value ([3]; 20.0 μM) was −0.20 log10 and the “Significant log10 reduction vs nontreated controls: Tumor necrosis factor alpha (TNFα)” value ([3]; 20.0 μM) was −0.12 log10. The “Significant log10 reduction … (M-CSF)” value ([4]; 0.7 μM) was −0.11 log10, the “Significant log10 reduction … (M-CSF)” value ([4]; 2.2 μM) was −0.07 log10 and the “Significant log10 reduction vs nontreated controls: Secreted interleukin 10 (IL-10)” value [7] was −0.21 log10. The “Significant log10 reduction vs nontreated controls: Tissue plasminogen activator (tPA)” value (“Significant log10 reduction … (tPA)” below) ([8]; 2.2 μM) was −0.08 log10, the “Significant log10 reduction … (tPA)” value ([8]; 6.7 μM) was −0.11 log10 and the “Significant log10 reduction … (tPA)” value ([8]; 20.0 μM) was −0.12 log10. For the same compound, the “Significant log10 reduction vs nontreated controls: Secreted prostaglandin E2 (PGE2)” value (“Significant log10 reduction … (PGE2)” for short) ([9]; 0.7 μM) was −0.11 log10, the “Significant log10 reduction … (PGE2)” value ([9]; 2.2 μM) was −0.08 log10 and the “Significant log10 reduction … (PGE2)” value ([9]; 6.7 μM) was −0.20 log10. For the same compound, the “Significant log10 reduction … CD40” value ([9]; 20.0 μM) was −0.11 log10.
